Reference: US7264932B2, “Nuclease inhibitor cocktail” (Applera Corporation, priority 1999, dated 2007)
“And” between values parts separate entries of the source, which are not always exact repeats. Equal entries are not always repeated.

How the values were obtained:
RNase A, 1, and T1 = assay: Anti-RNase antibodies / Specific Anti-RNase Cocktail with added non-antibody inhibitor; assay type: biochemical; conditions: for effect on action of Specific Anti-RNase Cocktail against RNase A, 1, and T1: detergent added to cocktail at 0.1% to 1%
Procedure: (§1) The activity of an anti-nuclease cocktail is readily determined using radiolabeled RNA or DNA to detect the inhibition of nuclease by anti-nuclease antibodies in the anti-nuclease cocktail. […] Assay buffer, nuclease and an anti-nuclease cocktail are then added to 0.5 ml microfuge tubes. A mixture comprising assay buffer, RNA or DNA and radiolabeled RNA or DNA is added to the microfuge tubes, and the tubes are vortexed and microfuged. After incubation of the tubes at 37° C. for 30 minutes, a portion of the tube contents is removed and placed into gel loading buffer. After mixing, the combination is loaded onto a gel, typically a 8M urea/5% acrylamide gel, which is exposed to film.
(§2) Radiolabeled RNA was used to detect the inhibition of RNase A, RNase T1, and RNase 1 by specific antibodies.
(§3) The “MIX” was prepared by combining 10× Assay Buffer (0.9 μl/rxn), 5 mg/ml yeast RNA (0.4 μl/rxn), ^32P-labeled β actin RNA (1 μl/rxn), and nuclease-free H2O (6.7 μl/rxn), for a total of 9 μl/rxn.
(§4) 1× Assay Buffer was added first. Then Specific RNase Cocktail, Specific Anti-RNase Cocktail and MIX were added. The tubes are vortexed and microfuged, then incubated at 37° C. for 30 min (Table 9).
(§5) At the end of the incubation time, 10 μl of solution was removed from the tube and placed into 10 μl Gel Loading Buffer II. The combination was mixed thoroughly and loaded onto a 8M urea/5% acrylamide gel. The gel was exposed to film for 30 min. at −80° C. with an intensifying screen.

nuclease = nuclease (Homo sapiens, UniProt P03950); assay: Ki of Lead 1 and Lead 2 analogs (Tables 1 and 2); assay type: biochemical; conditions: Table 1, Lead 1 Analog List
nuclease, sequence (P03950 25-147): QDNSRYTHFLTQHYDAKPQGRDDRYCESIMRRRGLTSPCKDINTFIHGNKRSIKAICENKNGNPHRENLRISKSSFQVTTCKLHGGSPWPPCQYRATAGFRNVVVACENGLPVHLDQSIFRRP

diluted pancreas lysate = assay: Intactness of total RNA (RNA LabChip), diluted pancreas lysate; assay type: biochemical, mouse
Procedure: A total of 100 pg/ul e. […].
Pancreatic lysate (0.1 mg/ml) was diluted 1:20,000 in 24 mM Hepes, pH 7.2, 50 mM NaCl, 1 mM MgCl2 and pre-incubated with either 1% SDS or 6.25 mM OVA for 30 s prior to the addition of 2 ug mouse liver total RNA. Reactions were incubated at 25 C for an additional 4 min, quenched, and analyzed on an RNA LabChip.
Mouse pancreatic tissue (5 mg) was disrupted in 50 ul of 24 mM Hepes, pH 7.2, 50 mM NaCl, 1 mM MgCl2. The diluted lysate (1:20,000) was pre-incubated with 50 uM Benzopurpurin B (BpB) for 30 sec and then added to 100 ng/ul mouse liver total RNA (Ambion) and incubated at 23 C for an additional 4 min. Samples were quenched in a guanidinium lysis buffer, and the RNA purified via MEGAclear™ MAG-96 and eluted with 20 ul nuclease-free water. […] These experiments were conducted in the same fashion except that 100 uM BpB was employed. The sample (1 ul) was analyzed by 2100 BioAnalyzer software (Agilent) after separation on an RNA LabChip.
Mouse pancreatic tissue (5 mg) was dounced in 50 ul of 24 mM Hepes, pH 7.2, 50 mM NaCl, 1 mM MgCl2. A diluted lysate (1:20,000) was pre-incubated with 100 uM BpB or the analog Benzopurpurin 4B (Bp4B) for 30 sec and then added to 100 ng/ul mouse liver total RNA (Ambion) and incubated at 23 C for an additional 4 min. Samples were quenched in a guanidinium lysis buffer, and the RNA purified via MEGAclear™ MAG-96 and eluted with 20 ul nuclease-free water. The sample (1 ul) was analyzed by 2100 BioAnalyzer software (Agilent) after separation on an RNA LabChip.
Pancreatic tissue (5 mg) was dounced in 50 ul of 24 mM Hepes, pH 7.2, 50 mM NaCl, 1 mM MgCl2. The lysate was diluted (1:20,000) and then pre-incubated with 200 uM of 467929. […] All samples were pre-incubated for 30 sec before being added to 100 ng/ul mouse liver total RNA (Ambion) and incubated at 23C for an additional 4 min. The RNA was then immediately purified via MEGAclear™ MAG-96 and eluted with 20 ul nuclease-free water. The recovered RNA (1 ul) was analyzed by 2100 BioAnalyzer software after separation on an RNA LabChip.

DNase I = DNase I (Bos taurus, UniProt P00639); assay: Lambda DNA digestion assay with DNase I; assay type: biochemical; conditions: 0.1 U DNase, inhibitor at 5×Ki
DNase I, sequence (P00639 23-282): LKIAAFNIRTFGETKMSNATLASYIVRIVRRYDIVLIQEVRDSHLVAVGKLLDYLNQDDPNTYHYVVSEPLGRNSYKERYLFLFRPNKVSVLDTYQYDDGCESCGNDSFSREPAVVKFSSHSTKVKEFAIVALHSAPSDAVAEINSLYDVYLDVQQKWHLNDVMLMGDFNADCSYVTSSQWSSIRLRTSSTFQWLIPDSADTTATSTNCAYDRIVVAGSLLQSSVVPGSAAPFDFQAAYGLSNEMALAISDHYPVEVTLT
Description: One application for small molecule RNase inhibitors is as an RNA control agent during enzymatic manipulation of solutions containing RNA. These reactions include in vitro transcription, in vitro translation, DNase digestion, and reverse transcription, among others. […] […] […] All reactions were quenched with EDTA and the cleavage products resolved on a 1% agarose gel.
As a result, compounds such as #467929, 140553, and 180582 may have utility in curbing the activity of residual RNases that may carry over from RNA isolation methods during DNase treatments of the RNA.

[1] = tested on: one-step RT-PCR with MMLV-RT and SuperTaq, human CDC-2 mRNA; assay: One-step qRT-PCR tolerance, human CDC-2; assay type: biochemical
Procedure: The compatibility of #467929 and 227726 were tested in Ambion's MessageSensor RT-PCR Kit according to the supplier's instructions and using primers/probe designed to amplify a ˜100 nt amplicon from the human CDC-2 mRNA. The reaction conditions were: 20-ul one-step RT-PCR with MMLV-RT (0.4 U/ul final) and SuperTaq (0.04 U/ul final). The cycling conditions were: Stage 1. 42 C for 15 minutes Stage 2. 95 C for 5 min, Stage 3. 95 C-15 sec and 60 C-60 sec where Stage 3 is repeated 40 times. The input template was HeLa-S3 total RNA at either 1 ng or 10 ng/reaction. […] Consequently, these compounds may have utility in controlling any RNA degradation that might occur during the cDNA synthesis step of RT-PCR.

MMLV RT RNase H = MMLV RT RNase H (Moloney murine leukemia virus, UniProt P03355); assay: RT-based RNase H cleavage of RNA:DNA hybrid; assay type: biochemical
Procedure: As described above, Chembridge compound #467929 offered protection from several RNA-specific endonucleolytic activities. […] A 20-mer DNA oligonucleotide was asymmetrically annealed to a 1500 base synthetic RNA to create an RNA:DNA duplex substrate for RNase H. Reactions were initiated with 10 U of MMLV RT in 1× RT buffer (50 mM TrisCl pH 8.3, 75 mM KC, 3 mM MgCl2, 5 mM DTT) containing 500 ng/ul RNA:DNA hybrid. All reactions contained 5% DMSO either with or without the small molecule RNase inhibitor. Samples were incubated for 5 min at 37 C, and quenched with EDTA. Products were resolved on an RNA LabChip. Cleavage products were observed as two equally represented RNA species of 1000 and 500 bases. Product length and yield were determined using the 2100 BioAnalyzer software (Agilent). Table 18 details the level of inhibition of MMLV RT RNase H that is observed as a function of the concentration of compounds 467929 and 227726.

RNase A = biological target: T1, RNase A (Bos taurus, UniProt P61823); assay: Radiolabeled RNA probe degradation gel assay, RNase A; assay type: biochemical
T1 sequence (P61823 27-150): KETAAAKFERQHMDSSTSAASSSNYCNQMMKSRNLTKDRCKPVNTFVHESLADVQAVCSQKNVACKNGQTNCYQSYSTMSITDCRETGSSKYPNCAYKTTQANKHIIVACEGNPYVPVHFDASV
Procedure: as §1, §2, §3, §4, §5

## C[C@H](CCC(=O)NCCC[N+](C)(C)CCCS(=O)(=O)[O-])[C@H]1CC[C@H]2[C@@H]3[C@H](O)C[C@@H]4C[C@H](O)CC[C@]4(C)[C@H]3C[C@H](O)[C@]12C [CHAPS]
RNase A, 1, and T1
  effect on action of Specific Anti-RNase Cocktail against RNase A, 1, and T1: strengthened the action of Specific Anti-Rnase Cocktail against RNase A, 1, and T1.

## O=S(=O)(O)c1ccc(-c2ccc(/N=N/c3c(O)ccc4cc(S(=O)(=O)O)ccc34)cc2)cc1 [D726712]
nuclease
  Ki: ~350 µM

## [Cl-].[Cl-].[Mg+2] [MgCl2]
RNase A, 1, and T1; MgCl2 mixed together with cocktail
  effect of mixing with Specific Anti-RNase Cocktail: best

## CC(=O)Nc1ccc(N=Nc2c(S(=O)(=O)O)cc3cc(S(=O)(=O)O)cc(NC(C)=O)c3c2O)cc1 [acid violet7, acid violet 7]
nuclease
  Ki: 71 µM

## O=C(O)CC(O)(CC(=O)O)C(=O)O [citrate, reference compound]
Diluted pancreas lysate; 50 mm citrate, pancreas lysate 1:20,000, e. coli total rna, room temperature 4 min
  protection of total RNA from degradation: significant protection

## Nc1cccc(C(=O)Nc2ccc3c(O)cc(S(=O)(=O)O)cc3c2)c1 [compound 1743]
nuclease
  KI: in-activeat 75uM

## Nc1c(OCC(=O)O)ccc2cc(S(=O)(=O)O)ccc12 [compound 16163]
nuclease
  KI: in-activeat 75uM

## O=C(Nc1cc(S(=O)(=O)O)cc2cc(S(=O)(=O)O)cc(O)c12)c1ccccc1 [compound 16169]
nuclease
  KI: in-activeat 75uM

## Cc1cc(/N=N/c2ccc(S(=O)(=O)O)c3ccccc23)ccc1O [compound 45557]
nuclease
  Ki: > 500 µM

## Cc1ccccc1/N=N/c1ccc(/N=N/c2c(O)ccc3cc(S(=O)(=O)O)cc(S(=O)(=O)O)c23)c(C)c1 [compound 45601]
nuclease
  Ki: 122 µM

## O=C(Nc1ccc(/N=N/c2ccc3cc(S(=O)(=O)O)cc(S(=O)(=O)O)c3c2)cc1)c1ccc(/N=N/c2c(O)ccc3cc(S(=O)(=O)O)cc(S(=O)(=O)O)c23)cc1 [compound 65841]
nuclease
  Ki: 5 µM

## O=S(=O)(O)c1cc(O)c2c(/N=C/c3ccccc3O)cc(S(=O)(=O)O)cc2c1 [compound 88947]
nuclease
  KI: in-activeat 75uM

## O=C(O)C1=NN(c2ccccc2)C(=O)\C1=C/C=C/C=C/C1C(=O)N(c2ccccc2)N=C1C(=O)O (stereo not drawn) [compound 102704, 4-[5-(3-carboxy-5-oxo-1-phe-nyl-1,5-dihydro-4H-pyra-zol-4-ylidene)-1,3-penta-dien-1-yl]-5-hy-droxy-1-phenyl-1H-pyra-zole-3-carboxylic acid]
DNase I
  DNase inhibition: modestly inhibitory

## Cc1ccc(C)n1-c1cccc(C(=O)O)c1 [compound 128773, 3-(2,5-dimethyl-1H-pyr-rol-1-yl)benzoic acid]
DNase I
  DNase inhibition: modestly inhibitory

## O=C(COc1ccc(I)cc1)c1c(O)cc(O)cc1O [compound 140553, 2-(4-iodo-phenoxy)-1-(2,4,6-tri-hydroxyphenyl)etha-none]
DNase I
  DNase inhibition: little or no DNase inhibition

## Cc1ccc(S(=O)(=O)Nc2ccc(Cc3ccc(NS(=O)(=O)c4ccc(C)cc4)c(C(=O)O)c3)cc2C(=O)O)cc1 [compound 180582, 3,3′-methylenebis(6-[4-meth-ylphenylsulfonyl]a-mino)benzoic acid]
DNase I
  DNase inhibition: little or no DNase inhibition

## O=C(N/N=C(\c1ccccc1)c1ccncc1)c1ccccc1 [compound 227726, N′-[phenyl(4-pyri-dinyl)meth-ylene]benzohydrazide]
DNase I
  DNase inhibition: modestly inhibitory
[1]
  concentration tolerated in RT-PCR: at least 1.3 mM
[1]; Input RNA = 1 ng, inhibitor 130 uM
  Cycle Threshold: 26.01 and 26.08
[1]; Input RNA = 1 ng, inhibitor 655 uM
  Cycle Threshold: 26.14 and 26.18
[1]; Input RNA = 1 ng, inhibitor 1.3 mM
  Cycle Threshold: 26.08 and 26.18
[1]; Input RNA = 10 ng, inhibitor 130 uM
  Cycle Threshold: 23.18 and 23.24
[1]; Input RNA = 10 ng, inhibitor 655 uM
  Cycle Threshold: 23.01
[1]; Input RNA = 10 ng, inhibitor 1.3 mM
  Cycle Threshold: 23.02 and 23.04
MMLV RT RNase H; inhibitor 100 uM
  % Cleavage: 45%
MMLV RT RNase H; inhibitor 524 uM
  % Cleavage: 43%
MMLV RT RNase H; inhibitor 1000 uM
  % Cleavage: 47%

## N#CS.N=C(N)N [guanidine thiocyanate]
RNase A, 1, and T1
  effect on Specific Anti-RNase Cocktail: more inhibitory against different antibodies.

## NCCCCNCCCN [spermidine]
RNase A, 1, and T1; 5 mM spermidine mixed with cocktail
  effect on anti-RNase A, 1, and T1 activity of Specific Anti-RNase Cocktail: 5 Mm spermidine mixed with Specific Anti-RNase Cocktail enhanced anti-RNase

## NC(N)=O [urea]
RNase A
  concentration that inhibited RNase A activity: 6 M urea inhibited RNase A activity. This concentration of urea added to the Specific
RNase A, 1, and T1; 6 M urea added to cocktail
  effect on action of Specific Anti-RNase Cocktail: Anti-Rnase Cocktail strengthened the action of Specific Anti-RNase Cocktail.

## NP-40
RNase A, 1, and T1
  effect on action of Specific Anti-RNase Cocktail against RNase A, 1, and T1: strengthened the action of Specific Anti-Rnase Cocktail against RNase A, 1, and T1.

## Triton X-100
RNase A, 1, and T1
  effect on action of Specific Anti-RNase Cocktail against RNase A, 1, and T1: strengthened the action of Specific Anti-Rnase Cocktail against RNase A, 1, and T1.

## cefsulodin [reference compound]
nuclease
  Ki: 201 µM

## eriochrome black T [erio-chromeblack T]
nuclease
  Ki: 50 µM

## oligovinylsulfonic acid [OVA, reference compound]
Diluted pancreas lysate; 6.25 mM OVA, pancreatic lysate 1:20,000, mouse liver total RNA, 25 C 4 min
  protection of RNA from degradation: help remedy RNA degradation
